# Data as given in patent publication US20220087983A1, “ACTIVATING PYRUVATE KINASE R” (FORMA Therapeutics, Inc., priority 2020, published 2022).
# Where “and” joins values, the source holds several entries; their conditions need not be identical. Equal entries are not always repeated.
# Legend:
# 2,3-DPG blood levels = experiment: Phase 1: blood 2,3-DPG levels in SCD patients; assay type: in vivo, human
# Protocol: In this study, SAD/MAD cohorts are randomized (3 to 1) to receive Compound 1 or placebo (P). Compound 1 was evaluated first in 4 healthy SAD cohorts and 4 healthy MAD (14-day dosing period) cohorts. Based on the safety, and PK/PD profile from HS, Compound 1 is then evaluated in 1 SCD SAD cohort and 2 SCD MAD cohorts. Specifically, based on the safety and pharmacokinetic/pharmacodynamics (PK/PD) profile in healthy volunteer studies, Compound 1 is evaluated in patients (pts) with SCD, first in a single dose (SD or SAD) cohort and then in multiple-dose (MD or MAD) cohorts (14-day and 12-week). Safety assessments include AEs, vital signs, ECGs and laboratory parameters. PK/PD blood sampling was performed on Day 1 (SAD/MAD) and Day 14 (MAD) and up to 72 h after the last dose and at the end-of-study visit. PD parameters included 2,3-DPG, ATP, and p50 in all cohorts with additional PD studies (including oxygen scan) performed only in the SCD cohorts. […]
# The following table reports the mean percentage change in 2,3-DPG blood levels, relative to baseline, measured over time in SCD patients after a single dose of Compound 1 (700 mg):
# The following table reports the mean percentage change in 2,3-DPG blood levels, relative to baseline, measured over time after the first dose on days 1 and 14 in SCD patients who received daily doses of Compound 1 (300 mg QD) for 14 days: […]
# [1] = Phase 1: safety, adverse events in healthy volunteers; assay type: in vivo, human
# Protocol: In this study, SAD/MAD cohorts are randomized (3 to 1) to receive Compound 1 or placebo (P). Compound 1 was evaluated first in 4 healthy SAD cohorts and 4 healthy MAD (14-day dosing period) cohorts. Based on the safety, and PK/PD profile from HS, Compound 1 is then evaluated in 1 SCD SAD cohort and 2 SCD MAD cohorts. Specifically, based on the safety and pharmacokinetic/pharmacodynamics (PK/PD) profile in healthy volunteer studies, Compound 1 is evaluated in patients (pts) with SCD, first in a single dose (SD or SAD) cohort and then in multiple-dose (MD or MAD) cohorts (14-day and 12-week). Safety assessments include AEs, vital signs, ECGs and laboratory parameters. PK/PD blood sampling was performed on Day 1 (SAD/MAD) and Day 14 (MAD) and up to 72 h after the last dose and at the end-of-study visit. PD parameters included 2,3-DPG, ATP, and p50 in all cohorts with additional PD studies (including oxygen scan) performed only in the SCD cohorts. PD parameters included 2,3-DPG, ATP, p50, RBC deformability with controlled deoxygenation and reoxygenation (Lorrca® oxygen scan) and varying osmolality (Lorrca® osmoscan)). To maintain study blind, pt identifiers were removed when needed.
# Primary Outcome Measures: • 1. Incidence, frequency, and severity of adverse events (AEs) per CTCAE v5.0 of a single ascending dose and multiple ascending doses of Compound 1 in adult healthy volunteers and SCD patients. Incidence of abnormal laboratory test results (clinical chemistry, endocrine hematology, urinalysis). Change from baseline in vital signs (blood pressure, respiratory rate, heart rate, and oral temperature). […] Area under the plasma concentration-time curve from time zero until last quantifiable time point (AUC0-last) • [Time Frame: Up to 3 weeks of testing] • 6. […]
# Among the TEAEs reported in Table 13, TEAEs of grade 2 or less related to Compound 1 in the SAD cohorts included headache (n=1) and transient ventricular tachycardia (n=1), each in a different subject. […] The subject's back-up sample was re-assessed independently, and no lipase elevation was detected.
# [2] = molecular target: T1, wt-PKR in mature human erythrocytes (Homo sapiens, UniProt P30613); experiment: Cell assay: PKR activation in human RBCs (Biovision Pyruvate Kinase Assay); assay type: cell-based
# T1 construct: host or cells: purified human RBCs from donors
# Protocol: The activation of wt-PKR by Compound 1 in mature human erythrocytes ex vivo was evaluated in purified RBCs purchased from Research Blood Components. Cells treated with Compound 1 for 3 hr in glucose-containing media were washed, lysed, and assayed using a Biovision Pyruvate Kinase Assay (K709-100). The assay was repeated multiple times to account for donor-to-donor variability and the relatively narrow dynamic range.
# PKR(R510Q) = PKR(R510Q) (Homo sapiens, UniProt P30613, R510Q); experiment: Luminescence Assay (Kinase Glo Plus) of PKR activation; assay type: biochemical; settings: R510Q variant; Luminescence Assay of Example 2
# Protocol: (§1) PKR Activating Compounds can be identified with the biochemical Luminescence Assay of Example 2. The PKR activating activity of a series of chemical compounds was evaluated using the Luminescence Assay below, including compounds designated Compound 1, and Compound 2, or mixtures thereof.
# (§2) For each tested compound, the ability to activate PKR was determined using the following Luminescence Assay. The effect of phosphorylation of adenosine-5′-diphosphate (ADP) by PKR is determined by the Kinase Glo Plus Assay (Promega) in the presence or absence of FBP (D-fructose-1,6-diphosphate; BOC Sciences, CAS: 81028-91-3) as follows. Unless otherwise indicated, all reagents are purchased from Sigma-Aldrich. All reagents are prepared in buffer containing 50 mM Tris-HCl, 100 mM KCl, 5 mM MgCl2, and 0.01% Triton X100, 0.03% BSA, and 1 mM DTT. Enzyme and PEP (phosphoenolpyruvate) are added at 2× to all wells of an assay-ready plate containing serial dilutions of test compounds or DMSO vehicle. Final enzyme concentrations for PKR(wt), PKR(R510Q), and PKR(G332S) are 0.8 nM, 0.8 nM, and 10 nM respectively. Final PEP concentration is 100 μM. The Enzyme/PEP mixture is incubated with compounds for 30 minutes at RT before the assay is initiated with the addition of 2×ADP and KinaseGloPlus. Final concentration of ADP is 100 μM. […] For assays containing FBP, that reagent is added at 30 μM upon reaction initiation. Reactions are allowed to progress for 45 minutes at RT until luminescence is recorded by the BMG PHERAstar FS Multilabel Reader. The compound is tested in triplicate at concentrations ranging from 42.5 μM to 2.2 nM in 0.83% DMSO. AC50 measurements were obtained by the standard four parameter fit algorithm of ActivityBase XE Runner (max, min, slope and AC50). The AC50 value for a compound is the concentration (μM) at which the activity along the four parameter logistic curve fit is halfway between minimum and maximum activity.
# (§3) As set forth in Table 2 below, AC50 values are defined as follows: ≤0.1 μM (+++); >0.1 μM and ≤1.0 μM (++); >1.0 μM and ≤40 μM (+); >40 μM (0).
# PKR(wt) = PKR(wt) (Homo sapiens, UniProt P30613); experiment: as above; assay type: biochemical; settings: wild type; Luminescence Assay of Example 2
# Protocol: as §1, §2, §3
# T1 sequence (P30613 whole entry): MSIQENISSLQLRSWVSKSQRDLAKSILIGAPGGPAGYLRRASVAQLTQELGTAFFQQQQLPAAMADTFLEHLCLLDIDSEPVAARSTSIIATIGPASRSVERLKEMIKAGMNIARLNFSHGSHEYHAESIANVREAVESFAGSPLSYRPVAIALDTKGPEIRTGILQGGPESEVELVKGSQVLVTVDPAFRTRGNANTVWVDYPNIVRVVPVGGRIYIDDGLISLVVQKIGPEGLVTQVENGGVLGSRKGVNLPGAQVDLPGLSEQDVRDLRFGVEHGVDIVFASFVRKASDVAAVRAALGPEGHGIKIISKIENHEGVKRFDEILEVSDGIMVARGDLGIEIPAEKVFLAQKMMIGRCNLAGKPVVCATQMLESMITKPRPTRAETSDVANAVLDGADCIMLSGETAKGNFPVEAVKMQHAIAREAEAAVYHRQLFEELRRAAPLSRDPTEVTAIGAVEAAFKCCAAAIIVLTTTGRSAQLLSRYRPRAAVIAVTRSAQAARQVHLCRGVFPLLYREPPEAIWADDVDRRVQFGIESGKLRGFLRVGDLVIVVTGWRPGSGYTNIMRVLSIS
# Chain of PKR(wt) (P30613 whole entry): as above
# Chain of PKR(R510Q) (P30613 whole entry R510Q): as the sequence (P30613 whole entry) above, with R510Q counted along it
smiles,measurement,setting,value
"O=C([C@H](CO)c1ccccc1)N1CC2=C(C1)CN(S(=O)(=O)c1cnc3c(c1)OCCO3)C2 (single isomer, unassigned) [Compound 1]","Mean percentage change in 2,3-DPG blood levels","2,3-DPG blood levels; SCD patients, single dose 700 mg, 0 h after dose",−0%
same,"lag of maximum 2,3-DPG decrease behind maximum plasma concentration","2,3-DPG blood levels; SCD, single 700 mg dose (FIG. 54B)",about 24 hours
same,Grade 1 headache incidence,[1]; HS receiving 14 days,28%
same,Grade 1 headache incidence,[1]; HS receiving a single dose,4%
same,serious adverse events or AEs leading to withdrawal,[1]; HV SAD and MAD cohorts,No serious adverse events (SAEs) or AEs leading to withdrawal
same,EC50,[2]; Cell Assay of Example 4,< 500 nM
same,Max − Min (%),"[2]; human RBCs, 3 hr, individual replicates 1-4",<150% and <100% and <50%
same,Mean maximum activation increase (Max − Min),"[2]; human RBCs, 3 hr, mean of replicates",<100%
same,AC50,PKR(R510Q),< 1000 nM
same,AC50,PKR(wt),< 1000 nM
